The term pIC50 denotes the negative decadic logarithm of the IC50, by convention in mol/L.

What all share (assay type): biochemical
For test [1], the target named is human plasma butyrylcholinesterase (hBuChE) (Homo sapiens (Human), UniProt P06276). Kind of test: Ellman's test, inhibition of human plasma butyrylcholinesterase. The note with it: for inhibition at 1 µM: 1 μM inhibitor concentration, read-out: hBuChE % inh. As for the experimental part: (§1) The spectrophotometric Ellman's test [Ellman et al.] modified for assays in 96-well plates was used to test the activity. Reagents: 5,5′-dithiobis-(2-nitrobenzoic acid) (DTNB), eqBuChE and butyrylthiocholine iodide (BTC) were purchased from Sigma-Aldrich (Steinheim, Germany). hBuChE was from Vivonics (Bedford, MA, USA). The enzymes were prepared by dissolving in demineralized water to a concentration of 0.384 U/ml. Stock solutions of test compounds were prepared by dissolving in DMSO to a concentration of 0.0034 M. They were then diluted with water to obtain the appropriate concentrations in the wells. In the first step of the test, 25 μl of test compound (or DMSO/water mixture at the appropriate ratio for blank samples) was incubated in 0.1 M phosphate buffer (200 μl, pH=8.0) with DTNB (20 μl; 0.0025M) and with the appropriate enzyme (20 μl; eqBuChE or hBuChE) at 25° C. (animal enzyme) or 36° C. (human enzyme). After a 5 minutes incubation period, 20 μl of BTC solution (0.00375 M) was added. After another 5 minutes, the changes in absorbance of the solutions were measured at 412 nm using a multifunctional microplate reader (EnSpire Multimode; PerkinElmer; Waltham, MA, USA). All compounds were tested at a screening concentration of 10 μM (eqBuChE) or 1 μM (hBuChE). The percentage of enzyme inhibition was calculated from the equation 100-(S/B)×100, where S and B were the enzymatic activity in the test sample well and in the well without sample, respectively. […] All reactions were performed in triplicate. IC50 values were calculated using non-linear regression (GraphPad Prism 5 [GraphPad Software, San Diego, CA, USA 5.00]) for the percentage of enzyme inhibition against the inhibitor concentration used. Tacrine and donepezil were used as reference compounds.
human plasma butyrylcholinesterase (hBuChE), sequence (P06276 29-602): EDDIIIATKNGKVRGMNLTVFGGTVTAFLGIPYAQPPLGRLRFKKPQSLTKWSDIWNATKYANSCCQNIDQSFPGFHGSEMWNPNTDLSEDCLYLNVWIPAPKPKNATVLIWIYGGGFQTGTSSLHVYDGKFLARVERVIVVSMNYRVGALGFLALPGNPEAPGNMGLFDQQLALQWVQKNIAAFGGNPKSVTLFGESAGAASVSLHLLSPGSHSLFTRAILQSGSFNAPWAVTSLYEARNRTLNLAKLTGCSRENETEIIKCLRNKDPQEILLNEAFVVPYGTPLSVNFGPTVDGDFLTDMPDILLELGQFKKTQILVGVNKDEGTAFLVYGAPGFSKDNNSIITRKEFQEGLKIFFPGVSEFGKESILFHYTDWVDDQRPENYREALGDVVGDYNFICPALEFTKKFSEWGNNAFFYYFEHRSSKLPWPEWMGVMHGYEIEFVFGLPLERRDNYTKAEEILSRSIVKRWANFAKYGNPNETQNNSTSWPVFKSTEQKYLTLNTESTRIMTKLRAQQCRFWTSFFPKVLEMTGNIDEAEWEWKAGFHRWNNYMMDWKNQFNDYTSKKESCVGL
(In general: In Ellman's method for cholinesterases, released thiocholine reacts with DTNB.)

The target in test [2] is horse plasma butyrylcholinesterase (eqBuChE) (Equus caballus (Horse), UniProt P81908). The experiment in a line: Ellman's test, inhibition of horse plasma butyrylcholinesterase. As for the experimental part:
as §1

Test [3] concerns the target human recombinant beta-secretase (hBACE1) (Homo sapiens (Human), UniProt P56817). The experiment in a line: FRET assay, inhibition of human recombinant beta-secretase. Conditions: for pIC50: read-out: hBACE-1 IC50; for inhibition at 50 µM: 50 μM inhibitor concentration, read-out: hBACE-1 % inh. As for the experimental part:
The FRET assay [Vassar, et al.] was used to test activity using 384-well black plates and a microplate reader (EnSpire Multimode; PerkinElmer; Waltham, MA, USA). The test was purchased from Life Technologies Polska Sp. z o.o. (Warsaw, Poland). […] Stock solutions of test compounds were prepared in DMSO and then further diluted with assay buffer (50 mM sodium acetate; pH 4.5) to the appropriate concentrations in the wells. In the first step of the test, 10 μl of the substrate (Rh-[…] quencher, based on the so-called Swedish APP mutation) was mixed with 10 μl of the test compound (or assay buffer; for blank sample). The enzyme reaction was initiated by adding 10 μl of enzyme (hBACE1, 1 U/ml). The reaction mixture was incubated at 25° C. for 60 minutes, then 10 μL of Stop solution (2.5 M sodium acetate) was added. After stopping the reaction, fluorescence was measured at 576 nm. The percentage of enzyme inhibition was calculated from the formula [1−(S60−S0)/(C60−C0)]×100, where S0 and S60 are the fluorescence of the test sample (containing the enzyme, substrate and test compound) at the start of the reaction and after 60 minutes, respectively, whereas C0 and C60 were analogous fluorescence intensities in the blank samples (containing enzyme, substrate and buffer). All test compounds were tested at a concentration of 50 μM in triplicate. […] A BACE1 IV inhibitor (Calbiochem, Merck; Nottingham, UK) [Stachel et al.] was used as a reference compound. […] IC50 values for all test compounds were calculated using non-linear regression (GraphPad Prism 5 [GraphPad Software, San Diego, CA, USA 5.00]) for the percentage of enzyme inhibition against the inhibitor concentration used.

Test [4] deals with Recombinant human Aβ1-42 peptide (Homo sapiens (Human), UniProt P05067). The experiment in a line: Thioflavin T test, antiaggregation activity against beta-amyloid. The note with it: 10 μM test compound, 1.5 μM Aβ1-42; read-out: inh. Aβ aggr. % inh. As for the experimental part: The thioflavin T test [Levine III] was used for the determinations. Recombinant human Aβ1-42 peptide (HFIP pretreated, Merck Millipore, Darmstadt, Germany) was dissolved in DMSO to form a 75 μM stock solution. The solution was further diluted in HEPES buffer (150 mM HEPES, pH 7.4, 150 mM NaCl) to a concentration of 7.5 μM. Then, the Aβ1-42 solution was added to the test compounds (black 96-well plates were used) and diluted with thioflavin T solution (10 μM final concentration). The final mixture contained 1.5 μM Aβ1-42, 10 μM test compound, and 3% of DMSO. Fluorescence was measured every 300 s (excitation wavelength was 440 nm, emission wavelength was 490 nm) with continuous mixing between measurements. A multifunction microplate reader (Synergy H4; BioTek Instruments, Inc., Winooski, VT, USA) was used to measure the fluorescence. Fluorescence started increasing after approximately 4 hours, plateaued after 20 hours and remained virtually unchanged for the next 28 hours of incubation. The plateau-phase fluorescence intensities (in the presence and absence of test compounds) were averaged and the mean fluorescence values for the respective wells at t=0 h were subtracted from them. […] IC50 values were calculated using non-linear regression (GraphPad Prism 5 [GraphPad Software, San Diego, CA, USA 5.00]) for the percentage of aggregation inhibition against the inhibitor concentration used.
Recombinant human Aβ1-42 peptide, sequence (P05067 672-713): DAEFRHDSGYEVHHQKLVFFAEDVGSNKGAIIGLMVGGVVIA

Molecules are shown by their SMILES. pIC50: −log10 of the molar value.

horse plasma butyrylcholinesterase (eqBuChE), sequence (P81908 whole entry): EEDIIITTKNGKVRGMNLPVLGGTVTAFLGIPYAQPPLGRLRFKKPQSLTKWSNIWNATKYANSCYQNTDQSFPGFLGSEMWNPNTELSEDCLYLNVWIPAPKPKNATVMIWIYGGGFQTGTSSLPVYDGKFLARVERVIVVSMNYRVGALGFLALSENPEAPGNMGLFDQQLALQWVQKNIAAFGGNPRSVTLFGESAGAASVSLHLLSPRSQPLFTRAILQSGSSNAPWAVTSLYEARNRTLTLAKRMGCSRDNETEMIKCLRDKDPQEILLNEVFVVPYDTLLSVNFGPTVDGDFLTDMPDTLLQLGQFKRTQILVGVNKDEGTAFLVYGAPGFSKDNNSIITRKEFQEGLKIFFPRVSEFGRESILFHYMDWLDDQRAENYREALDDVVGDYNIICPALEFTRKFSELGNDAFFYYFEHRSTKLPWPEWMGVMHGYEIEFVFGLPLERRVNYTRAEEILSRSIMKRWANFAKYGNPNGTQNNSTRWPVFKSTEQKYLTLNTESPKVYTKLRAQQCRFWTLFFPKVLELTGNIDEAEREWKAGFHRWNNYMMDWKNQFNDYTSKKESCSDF
human recombinant beta-secretase (hBACE1), sequence (P56817 46-501): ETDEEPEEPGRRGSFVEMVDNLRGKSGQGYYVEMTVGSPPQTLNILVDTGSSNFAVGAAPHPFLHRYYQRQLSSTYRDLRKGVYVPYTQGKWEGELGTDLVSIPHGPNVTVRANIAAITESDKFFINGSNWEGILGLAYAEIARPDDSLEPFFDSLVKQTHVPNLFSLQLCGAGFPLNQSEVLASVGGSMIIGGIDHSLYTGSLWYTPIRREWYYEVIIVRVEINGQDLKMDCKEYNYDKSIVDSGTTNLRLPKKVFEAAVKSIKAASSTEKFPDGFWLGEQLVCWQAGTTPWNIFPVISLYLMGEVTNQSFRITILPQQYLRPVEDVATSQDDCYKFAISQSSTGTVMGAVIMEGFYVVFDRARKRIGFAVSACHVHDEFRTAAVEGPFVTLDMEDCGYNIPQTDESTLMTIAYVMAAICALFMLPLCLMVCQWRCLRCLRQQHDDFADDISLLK

For `O[C@@H](CNCc1ccccc1)[C@H](Cc1ccccc1)NC1c2ccccc2-c2ccccc21` [Compound 2, (2S,3S)-3-((9H-fluoren-9-yl)amino)-1-(benzylamino)-4-phenylbutan-2-ol], the pIC50 in test [1] was 6.24; in test [2], 6.48; in test [3], 5.32. For the same molecule, the inhibition at 10 µM in test [4] came out at 86.3%.
For `CC(C)c1cccc(CNC[C@@H](O)[C@H](Cc2ccccc2)NC2c3ccccc3-c3ccccc32)c1` [Compound 4, (2R,3S)-3-((9H-fluoren-9-yl)amino)-1-((3-isopropylbenzyl)amino)-4-phenylbutan-2-ol] the same measures were 6.31, 6.29, 5.41 and 83.7%.
In the case of `CC(C)(C)c1ccc(CNC[C@H](O)[C@H](Cc2ccccc2)NC2c3ccccc3-c3ccccc32)cc1` [Compound 5, (2S,3S)-3-((9H-fluoren-9-yl)amino)-1-((4-(tert-butyl)benzyl)amino)-4-phenylbutan-2-ol], the inhibition at 1 µM in test [1] was 62%. Further, the negative logarithm of the IC50 (pIC50) is 6.10 in test [2] and 5.18 in test [3]. Besides, the inhibition at 10 µM in test [4] was determined as 75.6%.
Consider `O[C@H](CNCc1cccc(C(F)(F)F)c1)[C@H](Cc1ccccc1)NC1c2ccccc2-c2ccccc21` [Compound 8, (2R,3S)-3-((9H-fluoren-9-yl)amino)-4-phenyl-1-((3-(trifluoromethyl)benzyl)amino)-butan-2-ol], for which the negative-log IC50 (pIC50) in test [1] is 6.14; in test [2], 6.12; in test [3], 5.50. The inhibition at 10 µM in test [4] was determined as 72.4%.
For `C[C@H](NC[C@@H](O)[C@H](Cc1ccccc1)NC1c2ccccc2-c2ccccc21)c1ccccc1` [Compound 9, (2R,3S)-3-((9H-fluoren-9-yl)amino)-4-phenyl-1-(((S)-1-phenylethyl)amino)butan-2-ol] the same measures were 6.09, 6.58, 4.70 and 63%.
The matching figures for `CC(C)(NC[C@@H](O)[C@H](Cc1ccccc1)NC1c2ccccc2-c2ccccc21)c1ccccc1` [Compound 10, (2R,3S)-3-((9H-fluoren-9-yl)amino)-4-phenyl-1-((2-phenylpropan-2-yl)amino)butan-2-ol]: 5.93, 6.46, 4.76 and 90.8%.
For the molecule `CC(C)(C)NC[C@H](O)[C@H](Cc1ccccc1)NC1c2ccccc2-c2ccccc21` [Compound 12, (2S,3S)-3-((9H-fluoren-9-yl)amino)-1-(tert-butylamino)-4-phenylbutan-2-ol], the inhibition at 1 µM in test [1] stood at 58.8%. The molecule also gave a pIC50 in test [2] of 5.31. Besides, the inhibition at 50 µM in test [3] was 48.7%. Moreover, in test [4], the inhibition at 10 µM was determined as 67.2%.
As for `CC(C)(C)CNC[C@@H](O)[C@H](Cc1ccccc1)NC1c2ccccc2-c2ccccc21` [Compound 13, (2R,3S)-3-((9H-fluoren-9-yl)amino)-1-(neopentylamino)-4-phenylbutan-2-ol], the inhibition at 1 µM in test [1] was 61.3%. Moreover, the pIC50 was 5.93 in test [2] and 5.07 in test [3]. In addition, the inhibition at 10 µM in test [4] was 80.2%.
Consider `O[C@H](CNCC(F)(F)F)[C@H](Cc1ccccc1)NC1c2ccccc2-c2ccccc21` [Compound 14, (2R,3S)-3-((9H-fluoren-9-yl)amino)-4-phenyl-1-((2,2,2-trifluoroethyl)amino)butan-2-ol], for which the inhibition at 1 µM in test [1] is 67.9%. The molecule further had a pIC50 in test [2] of 5.97. In addition, the inhibition at 50 µM in test [3] amounted to 36.8%. Also, the inhibition at 10 µM in test [4] came to 82.5%.
In the case of `O[C@@H](CNCC1CC1)[C@H](Cc1ccccc1)NC1c2ccccc2-c2ccccc21` [Compound 15, (2S,3S)-3-((9H-fluoren-9-yl)amino)-1-((cyclopropylmethyl)amino)-4-phenylbutan-2-ol], the pIC50 in test [1] was 5.99; in test [2], 6.01.
As for `CC(C)(C)c1ccc(CNC[C@H](O)[C@H](Cc2ccccc2)NC(=O)C2c3ccccc3-c3ccccc32)cc1` [Compound 18, N-((2S,3S)-4-((4-(tert-butyl)benzyl)amino)-3-hydroxy-1-phenylbutan-2-yl)-9H-fluorene-9-carboxamide], in test [1], the inhibition at 1 µM worked out at 55.6%. For the same molecule, the negative logarithm of the IC50 (pIC50) is 5.91 in test [2] and 5.95 in test [3]. The inhibition at 10 µM in test [4] stood at 63.5%.
With `O=C(CC1c2ccccc2-c2ccccc21)N[C@@H](Cc1ccccc1)[C@H](O)CNCc1cccc(C(F)(F)F)c1` [Compound 21, 2-(9H-fluoren-9-yl)-N-((2S,3R)-3-hydroxy-1-phenyl-4-((3-(trifluoromethyl)benzyl)-amino)butan-2-yl)acetamide], the inhibition at 1 µM in test [1] was 54.3%. The pIC50 is 5.69 in test [2] and 5.67 in test [3]. Moreover, the inhibition at 10 µM in test [4] is less than 10%.
The matching figures for `CC(C)(NC[C@@H](O)[C@H](Cc1ccccc1)NC(=O)C1c2ccccc2-c2ccccc21)c1ccccc1` [Compound 24, N-((2S,3R)-3-hydroxy-1-phenyl-4-((2-phenylpropan-2-yl)amino)butan-2-yl)-9H-fluorene-9-carboxamide]: 21.4%, 5.55, 5.29 and 61%.
`CC(C)(NC[C@@H](O)[C@H](Cc1ccccc1)NC(=O)CC1c2ccccc2-c2ccccc21)c1ccccc1` [Compound 25, 2-(9H-fluoren-9-yl)-N-((2S,3R)-3-hydroxy-1-phenyl-4-((2-phenylpropan-2-yl)amino)-butan-2-yl)acetamide]: the inhibition at 1 µM in test [1] amounted to 71.7%. The pIC50 in test [2] is 5.90; in test [3] it was 5.30. In addition, the inhibition at 10 µM in test [4] was 63%.
Take `CC(C)(C)CNC[C@@H](O)[C@H](Cc1ccccc1)NC(=O)C1c2ccccc2-c2ccccc21` [Compound 26, N-((2S,3R)-3-hydroxy-4-(neopentylamino)-1-phenylbutan-2-yl)-9H-fluorene-9-carboxamide]: the inhibition at 1 µM in test [1] turned out to be 61.1%. In addition, in test [2], the pIC50 is 5.96. Further, in test [3], the inhibition at 50 µM came out at 54.5%. Also, the inhibition at 10 µM in test [4] was 39.5%.

The values are drawn from US12492163B2, “9H-fluorene derivatives or their pharmaceutically acceptable salts” (priority 2020, dated 2025).
